Experimental data as given in patent US20100098788A1, “Extracts of Curcuma and Methods of Use Thereof” (priority 2008, published 2010).
Where two headings read alike, the source gives them in different places. Blank lines part the entries; values can stand above or below the compound they belong to.

Experiments:
[1] = biological target: T1, Aβ1-42 aggregation (Homo sapiens, UniProt P05067); assay: Interaction matrices of Extract 1 with extracts and curcuminoids in the Aβ1-42 aggregation assay; assay type: biochemical
T1 construct: carried out with the synthetic Aβ1-42 peptide incubated with the extracts
T1 sequence (P05067 672-713): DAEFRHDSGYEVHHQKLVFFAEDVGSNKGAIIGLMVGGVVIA

[2] = biological target: T2, Aβ1-42 peptide (Homo sapiens, UniProt P05067); assay: Amyloid aggregation assay (thioflavin T fluorescence); assay type: biochemical; conditions: 0 to 30 μg mL^−1, 120 h, 37° C.
T2 construct: carried out with the synthetic Aβ1-42 peptide incubated with the extracts
T2 sequence (P05067 672-713): as above

[3] = tested on: Aβ1-40, 42 peptides secreted from SweAPP N2a cells; assay: Aβ secretion ELISA in conditioned media of SweAPP N2a cells; assay type: cell-based; conditions: 3-30 μg/ml, 12 h
[4] = tested on: phosphorylated tau (Ser199/220 and AT8 antibodies) in Tg2576 mice; assay: Western blot of phosphorylated tau in brain homogenates after oral treatment; assay type: in vivo; conditions: soluble fraction, oral 0.07% in chow, 6 months
Experimental: The Tg2576 mice, which are engineered to develop AD within ca. 6 months after birth, were purchased from Taconic (Germantown, N.Y.). For oral administration of extracts, a total of 60 (30 female/30 male) Tg2576 mice with a B6/SJL background were employed. Beginning at 8 months of age, Tg2576 treatment mice were administered optimized turmeric Extract 1 and THC in NIH31 chow (0.07% in NIH31 chow, 167 mg/kg/day) or NIH31 chow alone (Control) for 6 months [n=20 (10 female/10 male)]. All mice were sacrificed at 14 months of age for analyses of Aβ levels and Aβ load in the brain according to previously described methods (J. Tan, T. Town, F. Crawford, T. Mori, A. DelleDonne, R. Crescentini, D. Obregon, R. A. Flavell and M. J. Mullan, 2002. Role of CD40 ligand in amyloidosis in transgenic Alzheimer's mice, Nat. Neurosci. 5:1288-1293). […]
Brain homogenates were obtained as previously described above. […] Densitometric analysis was done as previously described using a FluorS Multiimager with Quantity One™ software (BioRad, Hercules, Calif.) (K. Rezai-Zadeh, D. Shytle, N. Sun, T. Mori, H. Hou, D. Jeanniton, J. Ehrhart, K. Townsend, J. Zeng, D. Morgan, J. Hardy, T. Town and J. Tan, 2005. Green tea epigallocatechin-3-gallate (EGCG) modulates amyloid precursor protein cleavage and reduces cerebral amyloidosis in Alzheimer transgenic mice, J. Neurosci. 25:8807-8814).

[5] = tested on: IL-4 and IL-2 in splenocytes of Tg2576 mice; assay: Cytokine ELISA of anti-CD3 stimulated primary splenocyte cultures from treated mice; assay type: in vivo; conditions: splenocytes stimulated 24 h with anti-CD3 antibody
Experimental: FIG. 9 depicts the IL-4 to IL-2 cytokine profile of Extract 1- and THC-treated Tg2576 mice. Following sacrifice, primary cultures of splenocytes were established from the mice and stimulated for 24 hours with anti-CD3 antibody.
The Tg2576 mice, which are engineered to develop AD within ca. 6 months after birth, were purchased from Taconic (Germantown, N.Y.). For oral administration of extracts, a total of 60 (30 female/30 male) Tg2576 mice with a B6/SJL background were employed. […]
As described in the previous studies (J. Tan, T. Town, D. Paris, T. Mori, Z. Suo, F. Crawford, M. P. Mattson, R. A. Flavell and M. Mullan, 1999. Microglial activation resulting from CD40-CD40L interaction after beta-amyloid stimulation, Science. 286:2352-2355; J. Tan, T. Town, M. Saxe, D. Paris, Y. Wu and M. Mullan, 1999. Ligation of microglial CD40 results in p44/42 mitogen-activated protein kinase-dependent TNF-alpha production that is opposed by TGF-beta 1 and IL-10, J. Immunol. 163:6614-6621) cell cultured media were collected for measurement of cytokines by commercial cytokine ELISA kits. […] Cytokines were quantified using commercially available ELISAs (BioSource International, Inc., Camarillo, Calif.) that allow for detection of IL-2 and IL-4. […]

Effect ([1]; interaction with Extract 1 (synergistic, antagonistic or additive)): Additive | inhibition of Aβ1-42 aggregation [2]: effective
Compound: COc1cc(/C=C/C(=O)CC(=O)/C=C/c2ccc(O)c(OC)c2)ccc1O [Curcumin, curcumin]

Compound: COc1cc(/C=C/C(O)=C/C(=O)/C=C/c2ccc(O)cc2)ccc1O [DMC, demethoxycurcumin]
IC50 ([1]; extract or standard alone, Aβ1-42 aggregation, read-out: IC50 Individual (converted)): 1700 µM | inhibition of Aβ generation [3]: ca. 10%

Compound: COc1cc(CCC(=O)CC(=O)CCc2ccc(O)c(OC)c2)ccc1O [THC, tetrahydrocurcumin]
IC50 [1]: 95.3 µM | reduction of tau hyper-phosphorylation compared to control [4]: ca. 40% | ratio of IL-4 to IL-2 cytokine levels [5]: 0.8
